From patent US20130060023A1, “Compounds useful for treating neurodegenerative disorders” (Satori Pharmaceuticals, Inc., priority 2011, published 2013)
Like-named read-outs stand apart in the source and are kept apart here.

What was measured:
Format in all cases: cell-based
Details in all cases: Homo sapiens, 5 hours at 37° C., 1% DMSO
[1] = system: Aβ-42; experiment: Aβ-42 level in conditioned media of 2B7 cells, MSD 3-PLEX ELISA
Method: (§1) Assays were conducted to determine the ability of a Compound of Formula I to modulate […], […], and Aβ-38. μELISA Plates: Human (6E10) Ab 3-PLEX ELISA kits were purchased from Meso Scale Discovery Labs, 9328 Gaither Road, Gaithersburg, Md. 20877 (Catalog Number […]-3). Plates with capture antibodies were blocked for 1-2 hours at room temperature with 150 μL of the manufactures blocking reagent. Conditioned Media: Cultured 2B7 cells in 96 well plate with 250 μL of media per well until confluent; Prepared serial dilutions of compounds in DMSO at 100× the final desired concentration; Washed wells with 2B7 cells 1× with 250 μL of media; Diluted DMSO stocks 1:100 into media: • Added 250 μL of media containing compounds (1% DMSO) to wells with 2B7 cells for 5 hours at 37° C. ELISA Sample Prep: Diluted conditioned media: 1 part media with 1% DMSO and 1 part blocking buffer; 150 μL of the 250 μL of conditioned media were used. Standard Curve Sample Prep: Prepared per manufacturer's protocol (see above). […] Final Wash and Readout: Washed wells 5× with MSD wash buffer; Added 150 μL 2×MSD read buffer; Read with MSD imager. […] Data Analysis: Aβ peptide levels for each peptide were calculated from the standard curve using the MSD software provided with the MSD 2400 Imager. Percent vehicle values for each compound dosage were then calculated and fit to a 4 parameter curve generating IC50 values.

[2] = system: Aβ-38; experiment: Aβ-38 level in conditioned media of 2B7 cells, MSD 3-PLEX ELISA
Method: as §1

[3] = system: Aβ-40; experiment: Aβ-40 level in conditioned media of 2B7 cells, MSD 3-PLEX ELISA
Method: as §1

With `CC(C)[C@@H](OC(=O)N1CCC1)[C@H]1C[C@@H](C)[C@H]2[C@H](O1)[C@H](O)[C@@]1(C)[C@@H]3CC[C@H]4C(C)(C)[C@@H](O[C@H]5CN([C@@H]6CCNC6=O)CCO5)CC[C@@]45C[C@@]35CC[C@]21C` [Compound I-1] the IC50 ([1]; inflection of 4 parameter curve, read-out: Aβ 42 DR IC50 Inflection) was > 5000 nM, the IC50 ([1]; read-out: Aβ 42 IC50) was 100 to 500 nM and the IC50 ([2]; inflection of 4 parameter curve, read-out: Aβ 38 DR IC50 Inflection) was > 5000 nM. For the same compound, the IC50 ([2]; read-out: Aβ 38 IC50) was 501 to 1000 nM, the IC50 ([3]; inflection of 4 parameter curve, read-out: Aβ 40 DR IC50 Inflection) was > 5 µM and the IC50 ([3]; read-out: Aβ 40 IC50) was > 5 µM.
